Results published in patent US5300279A, “Organic amine phosphonic acid complexes for the treatment of calcific tumors” (The Dow Chemical Company, priority 1990, dated 1994).

Experiment: biolocalization of the radionuclide in rats (tissue distribution after tail vein injection)
Assay type: in vivo, male Sprague Dawley rats
Settings: for Bone/Blood / Bone/Muscle: ratio of percent dose per gram
Method: Studies to determine the qualitative biodistribution of the various radionuclides were conducted by injecting the compositions into rats and obtaining the gamma ray images of the entire animal at various times up to two hours after injection.
Laboratory rats were injected with the above complex (50-100 μl) via the tail vein. After 2 hours, the animals were sacrificed by cervical dislocation and organs and tissues removed. Samples were counted with a NaI counter to determine the biolocalization of the radionuclide.

[1] = Gd-159, two hour, average of five rats
[2] = Sm-153, rats, 2 hours, average of 5 rats
[3] = Lu-177 (Ex. 14, 15; 5 rats) or Ho-166 (Ex. 16; 3 rats), two hour
[4] = Sm-153, two hours, comparative, average of 5 rats (MDP, HEDP), 3 rats (PYP, IDP)
[5] = Ho-166, two hours, comparative, average of 2 rats (MDP, HEDP, PYP), 1 rat (IDP, HDP)
[6] = Yb-175, rats, two hour, average of 5 rats
[7] = Ho-166, Table X, time not stated, average of 3 rats

For O=P(O)(O)CN(CCN(CP(=O)(O)O)CP(=O)(O)O)CP(=O)(O)O.[159Gd+3] [Example 19], the “% Dose in Blood” value [1] was 0.15 % Dose, the “% Dose in Kidneys” value [1] was 0.33 % Dose and the “% Dose in Liver” value [1] was 0.25 % Dose. The “% Dose in Muscle” value [1] was 0.56 % Dose, the “% Dose in Skeleton” value [1] was 57 % Dose and the Bone/Blood [1] was 305. The Bone/Muscle [1] was 577.

For O=P(O)(O)CN(CCO)CCN(CP(=O)(O)O)CP(=O)(O)O.[153Sm+3] [Example 6], the “% Dose in Blood” value [2] was 0.035 % Dose, the “% Dose in Liver” value [2] was 0.45 % Dose and the “% Dose in Skeleton” value [2] was 57 % Dose. The “% Dose in Urine” value [2] was 50 % Dose, the Bone/Blood [2] was 1300 and the Bone/Muscle [2] was 1300.

With O=P(O)(O)CN(CCN(CP(=O)(O)O)CP(=O)(O)O)CP(=O)(O)O.[177Lu+3] [Example 14] the “% Dose in Blood” value [3] was 0.10 % Dose, the “% Dose in Kidneys” value [3] was 0.28 % Dose and the “% Dose in Liver” value [3] was 0.48 % Dose. For the same compound, the “% Dose in Muscle” value [3] was 0.44 % Dose, the “% Dose in Skeleton” value [3] was 51 % Dose and the Bone/Blood [3] was 500. It also gave a Bone/Muscle [3] of 1380.

In the case of O=P(O)(O)CN(CCO)CCN(CP(=O)(O)O)CP(=O)(O)O.[177Lu+3] [Example 15], the “% Dose in Blood” value [3] is reported as 0.17 % Dose, the “% Dose in Kidneys” value [3] is reported as 0.30 % Dose and the “% Dose in Liver” value [3] is reported as 1.9 % Dose. For the same compound, the “% Dose in Muscle” value [3] was 0.56 % Dose, the “% Dose in Skeleton” value [3] was 58 % Dose and the Bone/Blood [3] was 370. The Bone/Muscle [3] was 570.

For O=P(O)(O)NP(=O)(O)O.[153Sm+3] [Sm-153 IDP, reference compound], the “% Dose In Blood” value [4] was 0.04 % Dose, the “% Dose In Bone” value [4] was 0.6 % Dose and the “% Dose In Liver” value [4] was 36 % Dose. It also gave a Bone/Blood (Sm-153, two hours, comparative) of 11 and a Bone/Muscle (Sm-153, two hours, comparative) of 8.

For O=P(O)(O)OP(=O)(O)O.[166Ho+3] [Ho-166 PYP, reference compound], the “% Dose In Blood” value [5] was 0.63 % Dose, the “% Dose In Bone” value [5] was 3 % Dose and the “% Dose In Liver” value [5] was 67 % Dose. For the same compound, the Bone/Blood (Ho-166, two hours, comparative) was 4 and the Bone/Muscle (Ho-166, two hours, comparative) was 13.

With O=P(O)(O)CN(CCN(CP(=O)(O)O)CP(=O)(O)O)CCN(CP(=O)(O)O)CP(=O)(O)O.[153Sm+3] [Example 4] the “% Dose in Blood” value [2] was 0.16 % Dose, the “% Dose in Liver” value [2] was 0.27 % Dose and the “% Dose in Skeleton” value [2] was 30 % Dose. The “% Dose in Urine” value [2] was 74 % Dose, the Bone/Blood [2] was 224 and the Bone/Muscle [2] was 220.

For O=P(O)(O)CP(=O)(O)O.[153Sm+3] [Sm-153 MDP, reference compound], the “% Dose In Blood” value [4] was 0.23 % Dose, the “% Dose In Bone” value [4] was 2 % Dose and the “% Dose In Liver” value [4] was 85 % Dose. For the same compound, the Bone/Blood (Sm-153, two hours, comparative) was 9 and the Bone/Muscle (Sm-153, two hours, comparative) was 7.

For O=P(O)(O)CP(=O)(O)O.[166Ho+3] [Ho-166 MDP, reference compound], the “% Dose In Blood” value [5] was 1.5 % Dose, the “% Dose In Bone” value [5] was 1 % Dose and the “% Dose In Liver” value [5] was 64 % Dose. For the same compound, the Bone/Blood (Ho-166, two hours, comparative) was 0.5 and the Bone/Muscle (Ho-166, two hours, comparative) was 6.

For O=P(O)(O)NP(=O)(O)O.[166Ho+3] [Ho-166 IDP, reference compound], the “% Dose In Blood” value [5] was 0.28 % Dose, the “% Dose In Bone” value [5] was 2 % Dose and the “% Dose In Liver” value [5] was 65 % Dose. For the same compound, the Bone/Blood (Ho-166, two hours, comparative) was 6 and the Bone/Muscle (Ho-166, two hours, comparative) was 17.

With O=P(O)(O)CN(CP(=O)(O)O)CP(=O)(O)O.[175Yb+3] [Example 13] the “% Dose in Blood” value [6] was 0.204 % Dose, the “% Dose in Liver” value [6] was 0.236 % Dose and the “% Dose in Skeleton” value [6] was 63 % Dose. It also gave a Bone/Blood [6] of 256 and a Bone/Muscle [6] of 876.

With CC(C)N(CCN(CP(=O)(O)O)CP(=O)(O)O)CP(=O)(O)O.[166Ho+3] [Example 31] the “% Dose in Blood” value [7] was 0.22 % Dose, the “% Dose in Kidney” value [7] was 0.44 % Dose and the “% Dose in Liver” value [7] was 0.28 % Dose. For the same compound, the “% Dose in Muscle” value [7] was 0.68 % Dose, the “% Dose in Skeleton” value [7] was 65 % Dose and the “% Dose in Spleen” value [7] was 0.01 % Dose. The Bone/Blood [7] was 245 and the Bone/Muscle [7] was 520.

For O=P(O)(O)CN(CCN(CP(=O)(O)O)CP(=O)(O)O)Cc1ccccc1.[166Ho+3] [Example 33], the “% Dose in Blood” value [7] was 0.09 % Dose, the “% Dose in Kidney” value [7] was 0.34 % Dose and the “% Dose in Liver” value [7] was 0.13 % Dose. For the same compound, the “% Dose in Muscle” value [7] was 0.31 % Dose, the “% Dose in Skeleton” value [7] was 65 % Dose and the “% Dose in Spleen” value [7] was 0.01 % Dose. It also gave a Bone/Blood [7] of 542 and a Bone/Muscle [7] of 1093.

In the case of O=P(O)(O)C(O)P(=O)(O)O.[166Ho+3] [H0-166 HDP, reference compound], the “% Dose In Blood” value [5] is reported as 0.04 % Dose, the “% Dose In Bone” value [5] is reported as 0.2 % Dose and the “% Dose In Liver” value [5] is reported as 2 % Dose. It also gave a Bone/Blood (Ho-166, two hours, comparative) of 4 and a Bone/Muscle (Ho-166, two hours, comparative) of 4.

With O=P(O)(O)CN(CCN(CP(=O)(O)O)CP(=O)(O)O)CCN(CP(=O)(O)O)CP(=O)(O)O.[175Yb+3] [Example 10] the “% Dose in Blood” value [6] was 0.116 % Dose, the “% Dose in Liver” value [6] was 0.112 % Dose and the “% Dose in Skeleton” value [6] was 25 % Dose. It also gave a Bone/Blood [6] of 179 and a Bone/Muscle [6] of 366.

In the case of CC(O)(P(=O)(O)O)P(=O)(O)O.[166Ho+3] [Ho-166 HEDP, reference compound], the “% Dose In Blood” value [5] is reported as 10.1 % Dose, the “% Dose In Bone” value [5] is reported as 25 % Dose and the “% Dose In Liver” value [5] is reported as 1.8 % Dose. For the same compound, the Bone/Blood (Ho-166, two hours, comparative) was 2 and the Bone/Muscle (Ho-166, two hours, comparative) was 17.

For O=P(O)(O)CN(CCO)CCN(CP(=O)(O)O)CP(=O)(O)O.[175Yb+3] [Example 11], the “% Dose in Blood” value [6] was 0.231 % Dose, the “% Dose in Liver” value [6] was 0.214 % Dose and the “% Dose in Skeleton” value [6] was 56 % Dose. For the same compound, the Bone/Blood [6] was 190 and the Bone/Muscle [6] was 572.

In the case of CC(O)(P(=O)(O)O)P(=O)(O)O.[153Sm+3] [Sm-153 HEDP, reference compound], the “% Dose In Blood” value [4] is reported as 13 % Dose, the “% Dose In Bone” value [4] is reported as 21 % Dose and the “% Dose In Liver” value [4] is reported as 3.5 % Dose. The Bone/Blood (Sm-153, two hours, comparative) was 1 and the Bone/Muscle (Sm-153, two hours, comparative) was 11.

With O=P(O)(O)OP(=O)(O)O.[153Sm+3] [Sm-153 PYP, reference compound] the “% Dose In Blood” value [4] was 0.23 % Dose, the “% Dose In Bone” value [4] was 2 % Dose and the “% Dose In Liver” value [4] was 73 % Dose. For the same compound, the Bone/Blood (Sm-153, two hours, comparative) was 7 and the Bone/Muscle (Sm-153, two hours, comparative) was 15.

In the case of CN(CCN(CP(=O)(O)O)CP(=O)(O)O)CP(=O)(O)O.[166Ho+3] [Example 29], the “% Dose in Blood” value [7] is reported as 0.12 % Dose, the “% Dose in Kidney” value [7] is reported as 0.30 % Dose and the “% Dose in Liver” value [7] is reported as 0.14 % Dose. For the same compound, the “% Dose in Muscle” value [7] was 0.34 % Dose, the “% Dose in Skeleton” value [7] was 68 % Dose and the “% Dose in Spleen” value [7] was 0.01 % Dose. It also gave a Bone/Blood [7] of 470 and a Bone/Muscle [7] of 1133.

With O=P(O)(O)CN(CCN(CCN(CP(=O)(O)O)CP(=O)(O)O)CCN(CP(=O)(O)O)CP(=O)(O)O)CP(=O)(O)O.[153Sm+3] [Example 8] the “% Dose in Blood” value [2] was 0.25 % Dose, the “% Dose in Liver” value [2] was 0.18 % Dose and the “% Dose in Skeleton” value [2] was 28 % Dose. For the same compound, the “% Dose in Urine” value [2] was 65 % Dose, the Bone/Blood [2] was 80 and the Bone/Muscle [2] was 410.

In the case of O=P(O)(O)CN(CCO)CCN(CP(=O)(O)O)CP(=O)(O)O.[159Gd+3] [Example 20], the “% Dose in Blood” value [1] is reported as 0.14 % Dose, the “% Dose in Kidneys” value [1] is reported as 0.58 % Dose and the “% Dose in Liver” value [1] is reported as 0.57 % Dose. The “% Dose in Muscle” value [1] was 0.76 % Dose, the “% Dose in Skeleton” value [1] was 60 % Dose and the Bone/Blood [1] was 335. The Bone/Muscle [1] was 548.

For O=P(O)(O)CN(CCN(CP(=O)(O)O)CP(=O)(O)O)CP(=O)(O)O.[175Yb+3] [Example 9], the “% Dose in Blood” value [6] was 0.074 % Dose, the “% Dose in Liver” value [6] was 0.138 % Dose and the “% Dose in Skeleton” value [6] was 50 % Dose. The Bone/Blood [6] was 562 and the Bone/Muscle [6] was 619.
